According to article PMC5459853, “Cathepsin S inhibition combines control of systemic and peripheral pathomechanisms of autoimmune tissue injury” (Scientific Reports, 2017):

What was measured:
MRL-(Fas)lpr mice = assay: Experimental SLE and lupus nephritis, treatment week 11 to 19; type: in vivo
Description: Four-week-old female MRL-(Fas)lpr mice were purchased from Harlan Winkelmann (Borchen, Germany) and kept under pathogen-free conditions in a 12 hour light and dark cycle with free access to food and water. All animal experiments were performed in accordance with the European protection laws of animal welfare, and with approval by the local government authorities Regierung von Oberbayern (reference number: 55.2.1-54-2532.2-11-12). At 11 or 15 weeks of age only mice with proteinuria (Albustix, Bayer AG, Leverkusen, Germany) were randomized into five different groups (n = 10) receiving different medicated diets: Three groups were fed with chow mixed with either 3, 10 or 30 mg/kg/day RO5459072, another group’s chow was mixed with 100 mg/kg/day mycophenolate mofetil (MMF), and one group received a standard diet (vehicle). The dose of MMF was chosen according to several studies reporting strong efficacy on SLE and lupus nephritis in MRL-(Fas)lpr mice[24]–[26]. […] At the age of 19 weeks all mice were sacrificed by cervical dislocation. Blood and urine samples were collected at different time points as indicated. In other experiments 7 week old female MRL-(Fas)lpr mice were randomized into three groups (n = 3) to receive a single intravenous injection of 10 µg sterile recombinant Cat-S and one group receiving vehicle (100 µl sterile PBS). One of the Cat-S groups was pretreated with 30 mg/kg/day RO5459072 starting one week prior to Cat-S injection; another group was pretreated with a total of four daily intra-peritoneal injections of the PAR-2 inhibitor GB83 (10 mg/kg).
Kidney tissue samples were collected from all mice and fixed overnight in 4% buffered formalin. Subsequently the fixed tissue samples were embedded in paraffin and cut into 4 µm thick serial sections. Kidney paraffin sections were stained with periodic acid-Schiff (PAS) reaction using standardized protocols as described. Scoring of lupus nephritis activity and chronicity indices was performed according to human lupus nephritis, [43]. Methenamine silver staining was performed on paraffin embedded kidney sections and semiquantitatively scored form 0–3 by a blinded observer. For immunostaining the following primary antibodies were used: anti-mouse CD3 (Abcam, Cambridge, UK), complement C3c (Biobyt Ltd, Cambridge, UK), CD31 (Dianova GmbH, Hamburg, Germany), WT1 (Santa Cruz Biotechnology, Dallas, Texas) and nephrin (Acris Antibodies, San Diego, CA). The immunostaining for C3c and CD31 were analyzed using the ImageJ software by measuring positively stained area and dividing it by the total area of the glomerulus and reported as percentage of +ve area. Sections stained for WT1/nephrin and CD3 were evaluated by counting positive cells per glomerulus. All the morphometric analysis were carried out in a blinded fashion.
Urinary albumin/creatinine ratios were determined using the Mouse Albumin ELISA Quantitation set (Bethyl Laboratories, Montgomery, TX) and the Creatinine FS kit (DiaSys Diagnostic Systems, Holzheim, Germany)[44]. BUN levels were determined in plasma samples using a Urea FS kit (DiaSys Diagnostic Systems). Mouse IgM, IgG and its isotypes IgG1, IgG2a and IgG2b plasma levels were measured using ELISA Sets (Bethyl Laboratories) at a plasma dilution of 1:1,000 to 1:100,000. Double-stranded DNA IgG and IgM antibodies were quantified as described. Briefly, 96 well Nunc-Immuno plates (Thermo Fisher Scientific, Roskilde, Denmark) were coated with poly-L-lysine (1:1 diluted with PBS) and incubated for two hours. After washing the plates, the plates were coated with 1 µg/ml mouse tail dsDNA sparing the wells for standards, which were coated with anti-mIgG and anti-mIgM (Bethyl Laboratories). The standard curve was fixed from purified mIgG and mIgM (Bethyl Laboratories). The plasma samples were diluted 1:1,000 and added into the wells. After 1 h the assay was developed using HRP-labelled goat anti-mIgG and anti-mIgM and TMB substrate (BD Bioscience, San Diego, CA). […]

Human Cat-F = molecular target: T1, Human Cat-F (Homo sapiens, UniProt Q9UBX1); assay: Enzymatic isoform-selectivity assay, Cat-F; type: biochemical
T1 sequence (Q9UBX1 271-484): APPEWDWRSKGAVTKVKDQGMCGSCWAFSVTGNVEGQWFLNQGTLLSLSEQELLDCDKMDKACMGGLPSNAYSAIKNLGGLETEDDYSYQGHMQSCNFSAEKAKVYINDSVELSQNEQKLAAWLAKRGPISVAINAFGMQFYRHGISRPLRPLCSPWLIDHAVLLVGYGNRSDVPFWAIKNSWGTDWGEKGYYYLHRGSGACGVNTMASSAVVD
Description: (§1) RO5459072 was provided by F. Hoffmann-La Roche, Ltd., Basel, Switzerland. It is a competitive inhibitor of the active site of Cat-S and its nitrile function allows covalent reversible inhibition of Cat-S. The synthesis of RO5459072 has been described in WO 2010121918 and WO 2013068434. Recombinant cathepsins were produced in-house or were purchased from commercial vendors. Initial enzymatic assays to determine isoform-selectivity in vitro were performed as previously described, [23]. […] For this the Cat-S-dependent hydrolysis of the fluorogenic substrate Z-Phe-Arg-AMC (Sigma Aldrich) was followed at various inhibitor concentrations. The active fraction of Cat-S was detemined as 70% with a HPLC assay measuring modification of Cat-S with the covalent inhibitor LHVS. The buffer (100 mM potassium phosphate, 50 mM NaCl, 5 mM EDTA, 5 mM TCEP, pH 6) was thoroughly degassed prior to perfoming measurements to prevent oxidation of the catalytic cystein residue by dissolved oxygen. For the Ki-determination the substrate was employed at 10 µM = KM. All kinetic measurements were performad on a SFM-3000 stopped-flow instrument (Bio-Logic Science Instruments) and data were analyzed with GraphPad Prism v5.

Mouse Cat-S = Mouse Cat-S (Mus musculus, UniProt O70370); assay: Enzymatic isoform-selectivity assay, mouse Cat-S; type: biochemical; settings: read-out: apparent IC50, murine Cat-S
Description: as §1

Cn1cc(-c2ccc(S(=O)(=O)[C@@H]3C[C@@H](C(=O)NC4(C#N)CC4)N(C(=O)C4(C(F)(F)F)CC4)C3)c(C(F)(F)F)c2)cn1 [RO5459072]
intrarenal mononuclear phagocyte and T cell subsets (MRL-(Fas)lpr mice; flow cytometry of kidneys): suppressed
reduction of urinary albumin/creatinine (A/C) ratio more than MMF (MRL-(Fas)lpr mice; highest dose of RO5459072 versus MMF): 2 log scales
plasma levels of antinuclear antibodies (MRL-(Fas)lpr mice; highest dose, week 19): suppressed
food intake or body weight between groups (MRL-(Fas)lpr mice; medicated diets, throughout the study period): no significant difference
intrarenal mRNA expression of IL-6, MCP-1/CCL2, RANTES/CCL5 and CXCL2 (MRL-(Fas)lpr mice; real time PCR, kidney): suppressed
intrarenal mRNA expression of TNF-α, IFN-γ and SDF-1/CXCL12 (MRL-(Fas)lpr mice; real time PCR, kidney): remained unaffected
blood urea nitrogen (BUN) over time (MRL-(Fas)lpr mice; week 11-19): prevented the progressive increase
podocyte number and proteinuria (MRL-(Fas)lpr mice; week 11-19): protective effect
dsDNA IgM (MRL-(Fas)lpr mice; week 11-19, ELISA): did not affect
total levels of plasma IgM (MRL-(Fas)lpr mice; week 11-19, ELISA): did not affect
spleen plasma cells and plasma IgG levels and IgG isotypes (MRL-(Fas)lpr mice; week 11-19, RO5459072 3, 10, 30 mg/kg/day, MMF 100 mg/kg/day): dose-dependently suppressed
plasma dsDNA IgG levels (IgG autoantibodies) (MRL-(Fas)lpr mice; week 11-19, RO5459072 highest dose, MMF 100 mg/kg/day, ELISA): suppress plasma dsDNA IgG levels below baseline
spleen CD11c+/CD11b+/MHCII+ antigen-presenting cells (MRL-(Fas)lpr mice; week 11-19, flow cytometry): suppressed
spleen CD11c+/F4/80+/MHCII+ cells (MRL-(Fas)lpr mice; week 11-19, flow cytometry): suppressed
complement C3 deposits, diffuse proliferative glomerular lesions and glomerulosclerosis (MRL-(Fas)lpr mice; week 19): less
integrity of the glomerular vasculature (CD31 staining) (MRL-(Fas)lpr mice; week 19): improved
activity and chronicity scores of nephritis (MRL-(Fas)lpr mice; week 19, PAS sections): dose-dependently reduced
IC50 (Human Cat-F): > 1000 nM
IC50, Human Cat-F (Human Cat-F): No sub-micro molar inhibition
IC50 (Mouse Cat-S): 0.3 nM
